Data: US9340549B2, “Oxazolidinone compounds and derivatives thereof” (priority 2012, dated 2016)
Read-outs that look alike come from different tables or passages of the source.

Legend:
[1] = target: 6×HIS-tankyrase 1 (1091-1325) (Homo sapiens (Human), UniProt O95271); assay: biochemical; type: biochemical; conditions: […] enzyme, 400 nM NAD, 60 minutes at room temperature; read-out: TNKS1 IP IC50
[2] = tested on: total β-catenin in SW480 colorectal cells; assay: cells; type: cell-based; conditions: Homo sapiens
Method in brief: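 SW480 cells in growth medium (MEM alpha, 10% heat-inactivated FBS, 10 mM HEPES) treated with a 10-point, 3-fold dilution series of TNKS inhibitor for 40–48 h at 37 °C. Lysates run on an MSD sandwich immunoassay for total β-catenin, read by electrochemiluminescence.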

Axin2 in SW480 cells = assay: cells; type: cell-based; conditions: Homo sapiens, SW480, 24 h, read-out: Axin2 384 IF EC50 IP
Method in brief: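 SW480 cells treated 24 h at 37° C (0.5% DMSO final), fixed/permeabilized, immunostained for Axin2. ArrayScan imaging quantified ring-spot intensity; Axin2 accumulation expressed as percent of control, EC50 from concentration-response.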

[3] = SW480 cells, 40 to 48 hours, top concentration 10 μM, read-out: SW480-Total β-Catenin IC50 IP
[4] = SW480, read-out: SW480-Total β-Catenin IC50 IP

6×HIS-tankyrase 1 (1091-1325), sequence (O95271 1091-1325): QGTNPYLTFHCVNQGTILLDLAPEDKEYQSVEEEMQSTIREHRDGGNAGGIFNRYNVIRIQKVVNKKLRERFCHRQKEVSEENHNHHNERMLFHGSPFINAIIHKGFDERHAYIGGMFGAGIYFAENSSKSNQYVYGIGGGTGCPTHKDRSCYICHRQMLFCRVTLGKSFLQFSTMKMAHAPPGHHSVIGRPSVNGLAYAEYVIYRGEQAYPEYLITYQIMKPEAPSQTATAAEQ

Compound: CC1(C)OC(=O)N(c2ccc(-c3cc(-c4ncccn4)ncc3F)cc2)[C@H]1c1ccccc1 [Example 129, (S)-3-(4-(5-fluoro-2-(pyrimidin-2-yl)pyridin-4-yl)phenyl)-5,5-dimethyl-4-phenyloxazolidin-2-one]
- IC50 [1]: 1830 nM
- IC50 [2, 3]: > 10000 nM
- EC50 (Axin2 in SW480 cells; SW480 cells, 24 hours): > 25000 nM

Compound: CC1(C)OC(=O)N([C@H]2CC[C@H](c3cc(C4=NCCCN4)c[nH]c3=O)CC2)[C@H]1c1ccccc1 [Example 130, (S)-5,5-dimethyl-3-((1r,4S)-4-(2-oxo-5-(1,4,5,6-tetrahydropyrimidin-2-yl)-1,2-dihydropyridin-3-yl)cyclohexyl)-4-phenyloxazolidin-2-one]
- IC50 [1]: 783 nM
- IC50 [2, 4]: > 10000 nM
- EC50 (Axin2 in SW480 cells): > 25000 nM

Compound: CC1(C)OC(=O)N(c2ccc(-n3nnc4ccccc43)cc2)[C@H]1c1ccccc1 [Example 69, (S)-3-(4-(1H-benzo[d][1,2,3]triazol-1-yl)phenyl)-5,5-dimethyl-4-phenyloxazolidin-2-one]
- IC50 [1]: 2100 nM
- IC50 [2, 3]: > 10000 nM
- EC50 (Axin2 in SW480 cells; SW480 cells, 24 hours): > 25000 nM

Compound: O=C(Nc1cccc2cccnc12)c1ccc(N2C(=O)OC3(CCCC3)C2c2ccccc2)cc1 (stereo not drawn) [Example 45, (R+S) 4-(2-oxo-4-phenyl-1-oxa-3-azaspiro[4.4]nonan-3-yl)-N-(quinolin-8-yl)benzamide]
- IC50 [1]: 1250 nM
- IC50 [2, 4]: > 10000 nM
- EC50 (Axin2 in SW480 cells): > 25000 nM

Compound: CC1(C)OC(=O)N(c2ccc(-c3cnc(N)nc3)cc2)[C@H]1c1ccccc1 [Example 70, (S)-3-(4-(2-aminopyrimidin-5-yl)phenyl)-5,5-dimethyl-4-phenyloxazolidin-2-one]
- IC50 [1]: 1490 nM
- IC50 [2, 3]: > 10000 nM
- EC50 (Axin2 in SW480 cells; SW480 cells, 24 hours): > 25000 nM

Compound: CC1(C)OC(=O)N([C@H]2CC[C@H](N3C(=O)C(F)(F)c4ccccc43)CC2)[C@H]1c1ccccc1 [Example 48, (S)-3-((1s,4R)-4-(3,3-difluoro-2-oxoindolin-1-yl)cyclohexyl)-5,5-dimethyl-4-phenyloxazolidin-2-one]
- IC50 [1]: 617 nM
- IC50 [2, 3]: > 10000 nM
- EC50 (Axin2 in SW480 cells; SW480 cells, 24 hours): > 25000 nM

Compound: CC1(C)OC(=O)N([C@H]2CC[C@H](c3nnc(-c4ccccc4)o3)CC2)[C@@H]1c1ccccc1 [Example 86, (R)-5,5-dimethyl-4-phenyl-3-((1r,4R)-4-(5-phenyl-1,3,4-oxadiazol-2-yl)cyclohexyl)oxazolidin-2-one]
- IC50 [1]: 32.2 nM
- IC50 [2, 3]: > 10000 nM
- EC50 (Axin2 in SW480 cells; SW480 cells, 24 hours): 1660 nM

Compound: CC1(C)OC(=O)N(c2ccc(-c3cnc(N)c(-c4cnnc(Cl)c4)c3)cc2)[C@H]1c1ccccc1 (single isomer, unassigned) [Example 101]
- IC50 [1]: 16.2 nM
- IC50 [2, 3]: 210 nM
- EC50 (Axin2 in SW480 cells; SW480 cells, 24 hours): 197 nM

Compound: CC1(C)OC(=O)N(c2ccc(-c3cc(-c4cccnc4)c[nH]c3=O)cc2)[C@H]1c1ccccc1 [Example 118, (S)-5,5-dimethyl-3-(4-(6-oxo-1,6-dihydro-[3,3′-bipyridin]-5-yl)phenyl)-4-phenyloxazolidin-2-one]
- IC50 [1]: 150 nM
- IC50 [2, 3]: > 10000 nM
- EC50 (Axin2 in SW480 cells; SW480 cells, 24 hours): > 25000 nM

Compound: CC1(C)OC(=O)N([C@H]2CC[C@@H](c3cnc(N)c(C4=NCCCN4)c3)CC2)[C@H]1c1ccccc1 [Example 76, (S)-3-((1s,4R)-4-(6-amino-5-(1,4,5,6-tetrahydropyrimidin-2-yl)pyridin-3-yl)cyclohexyl)-5,5-dimethyl-4-phenyloxazolidin-2-one]
- IC50 [1]: 9840 nM
- IC50 [2, 3]: > 10000 nM
- EC50 (Axin2 in SW480 cells; SW480 cells, 24 hours): > 25000 nM

Compound: CC1(C)OC(=O)N(c2ccc(C(=O)Nc3cccc4cccnc34)cc2)[C@H]1c1ccc(F)cc1 [Example 2, (S)-4-(4-(4-fluorophenyl)-5,5-dimethyl-2-oxooxazolidin-3-yl)-N-(quinolin-8-yl)benzamide]
- IC50 [1]: 307 nM
- IC50 [2, 3]: 1960 nM
- EC50 (Axin2 in SW480 cells; SW480 cells, 24 hours): 5480 nM

Compound: CC1(C)OC(=O)N(c2ccc(-c3cc4ccncc4[nH]c3=O)cc2)[C@H]1c1ccccc1 [Example 88, (S)-5,5-dimethyl-3-(4-(2-oxo-1,2-dihydro-1,7-naphthyridin-3-yl)phenyl)-4-phenyloxazolidin-2-one]
- IC50 [1]: 11.8 nM
- IC50 [2, 3]: 473 nM
- EC50 (Axin2 in SW480 cells; SW480 cells, 24 hours): 285 nM

Compound: COc1ccc([C@@H]2N(c3ccc(C(=O)Nc4cccc5cccnc45)cc3)C(=O)OC2(C)C)cc1 [Example 113, (S)-4-(4-(4-methoxyphenyl)-5,5-dimethyl-2-oxooxazolidin-3-yl)-N-(quinolin-8-yl)benzamide]
- IC50 [1]: 130 nM
- IC50 [2, 3]: 2110 nM
- EC50 (Axin2 in SW480 cells; SW480 cells, 24 hours): 5220 nM

Compound: CC1(C)OC(=O)N(c2ccc(-c3cc(-c4ncccn4)cnc3F)cc2)[C@H]1c1ccccc1 [Example 3, (S)-3-(4-(2-Fluoro-5-(pyrimidin-2-yl)pyridin-3-yl)phenyl)-5,5-dimethyl-4-phenyloxazolidin-2-one]
- IC50 [1]: 378 nM
- IC50 [2, 3]: 1750 nM
- EC50 (Axin2 in SW480 cells; SW480 cells, 24 hours): > 25000 nM

Compound: CC1(C)OC(=O)N(c2ccc(-c3nnc4cc(-c5cncnc5)ccn34)cc2)[C@H]1c1ccccc1 [Example 66, (S)-5,5-dimethyl-4-phenyl-3-(4-(7-(pyrimidin-5-yl)-[1,2,4]triazolo[4,3-a]pyridin-3-yl)phenyl)oxazolidin-2-one]
- IC50 [1]: 1970 nM
- IC50 [2, 3]: 9270 nM
- EC50 (Axin2 in SW480 cells; SW480 cells, 24 hours): > 25000 nM

Compound: CC1(C)OC(=O)N(c2ccc(C(=O)Nc3cccc4cccnc34)cc2)[C@H]1c1cccc(F)c1 [Example 110, (S)-4-(4-(3-fluorophenyl)-5,5-dimethyl-2-oxooxazolidin-3-yl)-N-(quinolin-8-yl)benzamide]
- IC50 [1]: 193 nM
- IC50 [2, 3]: 1690 nM
- EC50 (Axin2 in SW480 cells; SW480 cells, 24 hours): 2700 nM

Compound: CC1(C)OC(=O)N([C@H]2CC=C(c3cc(-c4ncccn4)c[nH]c3=O)CC2)[C@H]1c1ccccc1 (single isomer, unassigned) [Example 6]
- IC50 [1]: 46.8 nM
- IC50 [2, 3]: 585 nM
- EC50 (Axin2 in SW480 cells; SW480 cells, 24 hours): 2660 nM

Compound: CC1(C)OC(=O)N([C@H]2CC[C@H](c3cnc(N)c(C#N)c3)CC2)[C@H]1c1ccccc1 [Example 95, 2-amino-5-((1S,4r)-4-((S)-5,5-dimethyl-2-oxo-4-phenyloxazolidin-3-yl)cyclohexyl)nicotinonitrile]
- IC50 [1]: 6.98 nM
- IC50 [2, 3]: 468 nM
- EC50 (Axin2 in SW480 cells; SW480 cells, 24 hours): 474 nM

Compound: CC1(C)OC(=O)N([C@H]2CC[C@H](n3c(=O)[nH]c4cc(C#N)ccc43)CC2)[C@H]1c1ccc(F)cc1 [Example 61, 1-((1S,4r)-4-((S)-4-(4-fluorophenyl)-5,5-dimethyl-2-oxooxazolidin-3-yl)cyclohexyl)-2-oxo-2,3-dihydro-1H-benzo[d]imidazole-5-carbonitrile]
- IC50 [1]: 3.42 nM
- IC50 [2, 3]: 148 nM
- EC50 (Axin2 in SW480 cells; SW480 cells, 24 hours): 238 nM

Compound: CC1(C)OC(=O)N(c2ccc(-c3cc(-c4ccccn4)cnn3)cc2)[C@H]1c1ccccc1 [Example 40, (S)-5,5-dimethyl-4-phenyl-3-(4-(5-(pyridin-2-yl)pyridazin-3-yl)phenyl)oxazolidin-2-one]
- IC50 [1]: 621 nM
- IC50 [2, 4]: 9470 nM
- EC50 (Axin2 in SW480 cells): > 25000 nM

Compound: CC1(C)OC(=O)N(c2ccc(-c3cc(-c4nccc(C#N)n4)c[nH]c3=O)cc2)[C@H]1c1ccccc1 [Example 120, (S)-2-(5-(4-(5,5-dimethyl-2-oxo-4-phenyloxazolidin-3-yl)phenyl)-6-oxo-1,6-dihydropyridin-3-yl)pyrimidine-4-carbonitrile]
- IC50 [1]: 75.8 nM
- IC50 [2, 3]: 2360 nM
- EC50 (Axin2 in SW480 cells; SW480 cells, 24 hours): 825 nM

Compound: CC1(C)OC(=O)N(c2ccc(-n3c(=O)oc4ccccc43)cc2)[C@H]1c1ccccc1 [Example 17, (S)-3-(4-(5,5-dimethyl-2-oxo-4-phenyloxazolidin-3-yl)phenyl)benzo[d]oxazol-2(3H)-one]
- IC50 [1]: 2820 nM
- IC50 [2, 3]: > 10000 nM
- EC50 (Axin2 in SW480 cells; SW480 cells, 24 hours): > 25000 nM
